Results as given in PubChem BioAssay (NCI).
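Step 1: Grow cells in 96-well plates. Step 2: Expose to compound for 48 hours at 5 concentrations. Step 3: Interpolate endpoints linearly; if unreached, use highest concentration. TGI is the concentration that stops growth completely.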

System: HL-60(TB) leukemia
Assay: growth of human tumour cells (NCI), 48 h

Row | Compound | TGI
1 | NNC(=O)c1cccc2c1Oc1ccccc1S2 | > 100 µM
2 | COc1cc2nc(-c3c(F)cccc3F)n(Cc3c(F)cccc3F)c2cc1Cc1c(F)cccc1F | > 100 µM
3 | O=C(/C=C1\C[C@H]2C=Nc3ccccc3C(=O)N2C1)NCCCCCNC(=O)/C=C1\C[C@H]2C=Nc3ccccc3C(=O)N2C1 | 6.13 µM
4 | NC(=S)N=Nc1c(O)cc(Nc2ccc(Cl)cc2Cl)c2ccccc12 | > 100 µM
5 | CC[P+](C#Cc1ccccc1)(c1ccccc1)c1ccccc1 | 1.05 µM
6 | Cc1ccc(C(=O)c2[nH]c(Nc3cc(C)ccn3)c(C(=S)Nc3ccccc3)c2N)cc1 | > 100 µM
7 | CC(C)Cc1c(C#N)c(C#N)c(N)n1Cc1ccccc1 | > 100 µM
8 | CNc1ccc2c(c1)Cc1ccccc1-2 | > 100 µM
9 | CCOC(=O)c1csc(NC(=O)CCCC#N)n1 | > 100 µM
10 | O=c1cc(-c2ccccc2F)[nH]c2cc3c(cc12)OCO3 | 1.09 µM
11 | CC(C)(C)c1ccc2c(c1)OCc1n[nH]c(n1)COc1cc(C(C)(C)C)ccc1OCCOCCO2 | > 100 µM
12 | COc1ccc(CCCCl)c(C2=NCCc3ccccc32)c1 | > 100 µM
13 | O=C(CN=C(CN(c1ccccc1)c1ccccc1)Oc1c(Cl)cc(Cl)cc1Cl)n1cnc2ccccc21 | > 100 µM
14 | Nc1n[nH]c2ccccc12 | > 100 µM
15 | COC(=O)[C@H]1C=C[C@H](OC2OC(COC(C)=O)C(OC(C)=O)C(OC(C)=O)C2OC(C)=O)n2c(=O)n(-c3ccccc3)c(=O)n21 (stereo not given in full) | > 100 µM

System: MDA-MB-231 breast
Assay: growth of human tumour cells (NCI), 48 h

Row | Compound | TGI
16 | CC1(C)[C@@H]2C[C@H]1c1cnc(-c3ccccn3)cc1[C@H]2C(O)[C@@H]1c2cc(-c3ccccn3)ncc2[C@H]2C[C@@H]1C2(C)C (stereo not given in full) | 3.89 µM
17 | CCOC(=O)Cc1nn2c(=O)cc(C)nc2s1 | > 100 µM
18 | COP(=O)(CC(=O)C1OC(OCc2ccccc2)C(OCc2ccccc2)C(OCc2ccccc2)C1OCc1ccccc1)OC (stereo not given) | 61.1 µM
19 | OC(c1ccco1)C(F)(F)c1nc2ccccc2o1 (stereo not given) | > 100 µM
20 | CCOC1NC(=O)c2ccccc21 (stereo not given) | > 100 µM
21 | CCN(C(=O)N[C@H](C(=O)N[C@@H](C)C(=O)OC)C(C)C)c1ccccc1 | > 100 µM
22 | Cc1cn(C2CC(OC(c3ccccc3)(c3ccccc3)c3ccccc3)C(COC(c3ccccc3)(c3ccccc3)c3ccccc3)O2)c(=O)[nH]c1=O (stereo not given) | > 100 µM
23 | Cc1cc2c(cc1Cl)SC(NNc1cnc3ccccc3n1)=NS2(=O)=O | > 100 µM
24 | O=CN(O)CC(=O)O | > 100 µM
25 | C(=N/Nc1ccc(-c2nc3ccccc3[nH]2)cc1)/c1c(-c2ccccc2)[nH]c2ccccc12 | 12 µM
26 | O=S1(=O)c2ccccc2NC(=S)N1c1ccccc1 | > 100 µM
27 | COC(=O)C(CCSC)NC(=O)CSc1nnc(COc2ccc(Cl)cc2)n1-c1ccccc1 (stereo not given) | 31.3 µM
28 | Cc1ccc(-n2cc(-c3ccc(Cl)cc3)c3c2N=CN2NC(c4ccco4)=NC32)cc1 (stereo not given) | 26 µM
29 | COc1cc(/C=C/c2cc(=O)cc(/C=C/c3ccc(O)c(OC)c3)o2)ccc1O | > 100 µM
30 | COn1cc(CO)c2ccccc21 | > 100 µM
31 | NNC(=O)c1cccc2c1Oc1ccccc1S2 | > 100 µM
32 | COc1cc2nc(-c3c(F)cccc3F)n(Cc3c(F)cccc3F)c2cc1Cc1c(F)cccc1F | > 100 µM
33 | O=C(/C=C1\C[C@H]2C=Nc3ccccc3C(=O)N2C1)NCCCCCNC(=O)/C=C1\C[C@H]2C=Nc3ccccc3C(=O)N2C1 | 30.4 µM
34 | NC(=S)N=Nc1c(O)cc(Nc2ccc(Cl)cc2Cl)c2ccccc12 | 27.6 µM
35 | CC[P+](C#Cc1ccccc1)(c1ccccc1)c1ccccc1 | 9.41 µM
36 | Cc1ccc(C(=O)c2[nH]c(Nc3cc(C)ccn3)c(C(=S)Nc3ccccc3)c2N)cc1 | > 100 µM
37 | CC(C)Cc1c(C#N)c(C#N)c(N)n1Cc1ccccc1 | > 100 µM
38 | CNc1ccc2c(c1)Cc1ccccc1-2 | > 100 µM
39 | CCOC(=O)c1csc(NC(=O)CCCC#N)n1 | > 100 µM
40 | O=c1cc(-c2ccccc2F)[nH]c2cc3c(cc12)OCO3 | 3.34 µM
41 | CC(C)(C)c1ccc2c(c1)OCc1n[nH]c(n1)COc1cc(C(C)(C)C)ccc1OCCOCCO2 | 25.5 µM
42 | COc1ccc(CCCCl)c(C2=NCCc3ccccc32)c1 | > 100 µM
43 | O=C(CN=C(CN(c1ccccc1)c1ccccc1)Oc1c(Cl)cc(Cl)cc1Cl)n1cnc2ccccc21 | > 100 µM
44 | Nc1n[nH]c2ccccc12 | > 100 µM
45 | COC(=O)[C@H]1C=C[C@H](OC2OC(COC(C)=O)C(OC(C)=O)C(OC(C)=O)C2OC(C)=O)n2c(=O)n(-c3ccccc3)c(=O)n21 (stereo not given in full) | 24.5 µM

System: SNB-75 CNS
Assay: growth of human tumour cells (NCI), 48 h

Row | Compound | TGI
46 | CC1(C)[C@@H]2C[C@H]1c1cnc(-c3ccccn3)cc1[C@H]2C(O)[C@@H]1c2cc(-c3ccccn3)ncc2[C@H]2C[C@@H]1C2(C)C (stereo not given in full) | 87.3 µM
47 | CCOC(=O)Cc1nn2c(=O)cc(C)nc2s1 | > 100 µM
48 | COP(=O)(CC(=O)C1OC(OCc2ccccc2)C(OCc2ccccc2)C(OCc2ccccc2)C1OCc1ccccc1)OC (stereo not given) | 92.3 µM
49 | OC(c1ccco1)C(F)(F)c1nc2ccccc2o1 (stereo not given) | > 100 µM
50 | CCOC1NC(=O)c2ccccc21 (stereo not given) | > 100 µM
51 | CCN(C(=O)N[C@H](C(=O)N[C@@H](C)C(=O)OC)C(C)C)c1ccccc1 | > 100 µM
52 | Cc1cn(C2CC(OC(c3ccccc3)(c3ccccc3)c3ccccc3)C(COC(c3ccccc3)(c3ccccc3)c3ccccc3)O2)c(=O)[nH]c1=O (stereo not given) | > 100 µM
53 | Cc1cc2c(cc1Cl)SC(NNc1cnc3ccccc3n1)=NS2(=O)=O | > 100 µM
54 | O=CN(O)CC(=O)O | > 100 µM
55 | C(=N/Nc1ccc(-c2nc3ccccc3[nH]2)cc1)/c1c(-c2ccccc2)[nH]c2ccccc12 | 59.9 µM
56 | O=S1(=O)c2ccccc2NC(=S)N1c1ccccc1 | 48.3 µM
57 | COC(=O)C(CCSC)NC(=O)CSc1nnc(COc2ccc(Cl)cc2)n1-c1ccccc1 (stereo not given) | 33.7 µM
58 | Cc1ccc(-n2cc(-c3ccc(Cl)cc3)c3c2N=CN2NC(c4ccco4)=NC32)cc1 (stereo not given) | 18.1 µM
59 | COc1cc(/C=C/c2cc(=O)cc(/C=C/c3ccc(O)c(OC)c3)o2)ccc1O | > 95 µM
60 | COn1cc(CO)c2ccccc21 | > 100 µM
61 | NNC(=O)c1cccc2c1Oc1ccccc1S2 | > 100 µM
62 | COc1cc2nc(-c3c(F)cccc3F)n(Cc3c(F)cccc3F)c2cc1Cc1c(F)cccc1F | > 70.8 µM
63 | O=C(/C=C1\C[C@H]2C=Nc3ccccc3C(=O)N2C1)NCCCCCNC(=O)/C=C1\C[C@H]2C=Nc3ccccc3C(=O)N2C1 | 28.4 µM
64 | NC(=S)N=Nc1c(O)cc(Nc2ccc(Cl)cc2Cl)c2ccccc12 | 78.5 µM
65 | CC[P+](C#Cc1ccccc1)(c1ccccc1)c1ccccc1 | 5.31 µM
66 | Cc1ccc(C(=O)c2[nH]c(Nc3cc(C)ccn3)c(C(=S)Nc3ccccc3)c2N)cc1 | > 100 µM
67 | CC(C)Cc1c(C#N)c(C#N)c(N)n1Cc1ccccc1 | > 100 µM
68 | CNc1ccc2c(c1)Cc1ccccc1-2 | > 100 µM
69 | CCOC(=O)c1csc(NC(=O)CCCC#N)n1 | > 100 µM
70 | O=c1cc(-c2ccccc2F)[nH]c2cc3c(cc12)OCO3 | 17.3 µM
71 | CC(C)(C)c1ccc2c(c1)OCc1n[nH]c(n1)COc1cc(C(C)(C)C)ccc1OCCOCCO2 | 19.2 µM
72 | COc1ccc(CCCCl)c(C2=NCCc3ccccc32)c1 | > 100 µM
73 | O=C(CN=C(CN(c1ccccc1)c1ccccc1)Oc1c(Cl)cc(Cl)cc1Cl)n1cnc2ccccc21 | > 100 µM
74 | Nc1n[nH]c2ccccc12 | > 100 µM
75 | COC(=O)[C@H]1C=C[C@H](OC2OC(COC(C)=O)C(OC(C)=O)C(OC(C)=O)C2OC(C)=O)n2c(=O)n(-c3ccccc3)c(=O)n21 (stereo not given in full) | 24.9 µM
